Experimental data as given in ChEMBL document CHEMBL4196157, “Inhibition of Herpes Simplex Virus-1 Entry into Human Cells by Nonsaccharide Glycosaminoglycan Mimetics” (ACS Med Chem Lett, 2018).
pKd: −log10 of the molar value. Activity calls are given as the source filed them. The rule behind the calls is not given here.

Key:
[1] = (§1) Binding affinity to recombinant HSV1 glycoprotein D (21 to 339 residues) assessed as change in intrinsic tryptophan fluorescence by spectrofluorimetric method; design: species or system Human alphaherpesvirus 1
Human alphaherpesvirus 1 [2] = assay: as §1
[3] = Binding affinity to HSV1 glycoprotein D; design: species or system Human alphaherpesvirus 1
Human alphaherpesvirus 1 [4] = assay: Antiviral activity against Herpes simplex virus 1 KOS infected in African green monkey Vero cells assessed as inhibition of plaque formation at 5 ug treated 1 hr prior to viral infection followed by compound washout and subsequent compound addition measured after 72 hrs by Giemsa staining based assay; assay type: functional, organism-based

Row | pKd [1] | %max (Human alphaherpesvirus 1 [2]) [%] | pKd [3] | SMILES | inhibition (Human alphaherpesvirus 1 [4])
1 | 6.95 | 328 | – | O=C(OC1[C@@H](OC(=O)c2cc(OS(=O)(=O)O)cc(OS(=O)(=O)O)c2)[C@@H](OC(=O)c2ccc(OS(=O)(=O)O)cc2OS(=O)(=O)O)C(OC(=O)c2cc(OS(=O)(=O)O)cc(OS(=O)(=O)O)c2)[C@H](OC(=O)c2cc(OS(=O)(=O)O)cc(OS(=O)(=O)O)c2)[C@H]1OC(=O)c1cc(OS(=O)(=O)O)cc(OS(=O)(=O)O)c1)c1cc(OS(=O)(=O)O)cc(OS(=O)(=O)O)c1 (single isomer, unassigned) | –
2 | 6.11 | -157 | – | CCOC(=O)c1c(C)oc2cc(OCc3ccccc3)c(OCCCOc3cc(OS(=O)(=O)O)cc4oc(-c5ccc(OS(=O)(=O)O)cc5)cc(=O)c34)cc12 | –
3 | 6.30 | -85 | – | CO[C@H]1O[C@H](COS(=O)(=O)O)[C@@H](O[C@@H]2O[C@@H](C(=O)O)[C@@H](O[C@H]3O[C@H](COS(=O)(=O)O)[C@@H](O[C@@H]4O[C@H](C(=O)O)[C@@H](O[C@H]5O[C@H](COS(=O)(=O)O)[C@@H](O)[C@H](O)[C@H]5NS(=O)(=O)O)[C@H](O)[C@H]4O)[C@H](OS(=O)(=O)O)[C@H]3NS(=O)(=O)O)[C@H](O)[C@H]2OS(=O)(=O)O)[C@H](O)[C@H]1NS(=O)(=O)O [FONDAPARINUX SODIUM] | –
4 | 6.82 | -52 | – | O=S(=O)(O)OC[C@H]1O[C@@](COS(=O)(=O)O)(O[C@@H]2O[C@H](COS(=O)(=O)O)[C@@H](OS(=O)(=O)O)[C@H](OS(=O)(=O)O)[C@H]2OS(=O)(=O)O)[C@@H](OS(=O)(=O)O)[C@@H]1OS(=O)(=O)O | –
5 | 8.10 | 53 | – | O=C(O[C@@H]1[C@@H](OC(=O)c2cc(OS(=O)(=O)O)cc(OS(=O)(=O)O)c2)[C@H](OC(=O)c2cc(OS(=O)(=O)O)cc(OS(=O)(=O)O)c2)[C@@H](OC(=O)c2ccc(OS(=O)(=O)O)cc2OS(=O)(=O)O)[C@H](OC(=O)c2cc(OS(=O)(=O)O)cc(OS(=O)(=O)O)c2)[C@H]1OC(=O)c1cc(OS(=O)(=O)O)cc(OS(=O)(=O)O)c1)c1cc(OS(=O)(=O)O)cc(OS(=O)(=O)O)c1 | –
6 | 7.59 | 87 | – | CC1OC[C@H]2O[C@H](OC(=O)c3cc(OS(=O)(=O)O)cc(OS(=O)(=O)O)c3)[C@H](OC(=O)c3cc(OS(=O)(=O)O)cc(OS(=O)(=O)O)c3)[C@@H](OC(=O)c3cc(OS(=O)(=O)O)cc(OS(=O)(=O)O)c3)[C@@H]2O1 (stereo partly drawn) | –
7 | 5.65 | -112 | – | CCOC(=O)c1c(C)oc2cc(OCc3cccc(OS(=O)(=O)O)c3)c(OCc3oc4cc(OC)c(OS(=O)(=O)O)cc4c3C(=O)OCC)cc12 | –
8 | – | – | 4.74 | O=C(O)C1=C[C@H](O)[C@@H](OS(=O)(=O)O)[C@H](O[C@H]2[C@H](O)[C@@H](NS(=O)(=O)O)[C@@H](O[C@H]3[C@H](O)[C@@H](OS(=O)(=O)O)[C@H](O[C@H]4[C@H](O)[C@@H](NS(=O)(=O)O)[C@@H](O[C@H]5[C@H](O)[C@@H](OS(=O)(=O)O)[C@H](O[C@H]6[C@H](OS(=O)(=O)O)[C@@H](NS(=O)(=O)O)[C@@H](O[C@H]7[C@H](O)[C@@H](OS(=O)(=O)O)[C@H](O[C@H]8[C@H](O)[C@@H](NS(=O)(=O)O)[C@@H](O)O[C@@H]8COS(=O)(=O)O)O[C@H]7C(=O)O)O[C@@H]6COS(=O)(=O)O)O[C@H]5C(=O)O)O[C@@H]4COS(=O)(=O)O)O[C@H]3C(=O)O)O[C@@H]2COS(=O)(=O)O)O1 | –
9 | – | – | – | Nc1nc2c(ncn2COCCO)c(=O)[nH]1 | Active
10 | 7.66 | -82 | – | Cc1cc(Oc2cc3c(=O)c(OS(=O)(=O)O)c(-c4ccc(OS(=O)(=O)O)c(OS(=O)(=O)O)c4)oc3cc2OS(=O)(=O)O)c(C)cc1COc1cc(OS(=O)(=O)O)cc2oc(-c3ccc(OS(=O)(=O)O)c(OS(=O)(=O)O)c3)c(OS(=O)(=O)O)c(=O)c12 | –
